Assay results taken from ChEMBL document CHEMBL2016493, “Design, synthesis, synergistic antimicrobial activity and cytotoxicity of 4-aryl substituted 3,4-dihydropyrimidinones of curcumin” (Bioorg Med Chem Lett, 2012).
Active and inactive are the calls of the source. No cut-off for these calls is given here.

Tests used:
Pseudomonas aeruginosa [1] = assay: Antibacterial activity against Pseudomonas aeruginosa ATCC 15499 at 160 uM/ml after 24 hrs by kirby-bauer method; assay type: functional; conditions: ATCC 15499, 24 h, read-out: IZ
QG-56 = assay: Cytotoxicity against human QG56 cells after 48 hrs by MTT assay; assay type: functional, cell-based
Curvularia lunata [2] = assay: Antifungal activity against Curvularia lunata MTCC 581 at 80 uM/ml after 48 hrs by paper disc diffusion method; assay type: functional; conditions: MTCC 581, 48 h, read-out: IZ
Aspergillus flavus [3] = assay: Antifungal activity against Aspergillus flavus MTCC 1021 at 80 uM/ml after 48 hrs by paper disc diffusion method; assay type: functional; conditions: MTCC 1021, 48 h, read-out: IZ
Aspergillus flavus [4] = assay: Antifungal activity against Aspergillus flavus MTCC 1021 at 160 uM/ml after 48 hrs by paper disc diffusion method; assay type: functional; conditions: MTCC 1021, 48 h, read-out: IZ
Curvularia lunata [5] = assay: Antifungal activity against Curvularia lunata MTCC 581 at 40 uM/ml after 48 hrs by paper disc diffusion method; assay type: functional; conditions: MTCC 581, 48 h, read-out: IZ
Pseudomonas aeruginosa [6] = assay: Antibacterial activity against Pseudomonas aeruginosa ATCC 15499 at 40 uM/ml after 24 hrs by kirby-bauer method; assay type: functional; conditions: ATCC 15499, 24 h, read-out: IZ
Pseudomonas aeruginosa [7] = assay: Antibacterial activity against Pseudomonas aeruginosa ATCC 15499 at 20 uM/ml after 24 hrs by kirby-bauer method; assay type: functional; conditions: ATCC 15499, 24 h, read-out: IZ
Escherichia coli [8] = assay: Antibacterial activity against Escherichia coli ATCC 35218 at 20 uM/ml after 24 hrs by kirby-bauer method; assay type: functional; conditions: ATCC 35218, 24 h, read-out: IZ
[9] = system: Burkholderia pseudomallei; assay: Antibacterial activity against Burkholderia pseudomallei NTCC 10274 at 20 uM/ml after 24 hrs by kirby-bauer method; assay type: functional; conditions: NTCC 10274, 24 h, read-out: IZ
[10] = system: Burkholderia pseudomallei; assay: Antibacterial activity against Burkholderia pseudomallei NTCC 10274 at 40 uM/ml after 24 hrs by kirby-bauer method; assay type: functional; conditions: NTCC 10274, 24 h, read-out: IZ
Aspergillus niger [11] = assay: Antifungal activity against Aspergillus niger MTCC 1108 at 160 uM/ml after 48 hrs by paper disc diffusion method; assay type: functional; conditions: MTCC 1108, 48 h, read-out: IZ
Aspergillus niger [12] = assay: Antifungal activity against Aspergillus niger MTCC 1108 at 40 uM/ml after 48 hrs by paper disc diffusion method; assay type: functional; conditions: MTCC 1108, 48 h, read-out: IZ
Curvularia lunata [13] = assay: Antifungal activity against Curvularia lunata MTCC 581 at 160 uM/ml after 48 hrs by paper disc diffusion method; assay type: functional; conditions: MTCC 581, 48 h, read-out: IZ
Trichoderma viride [14] = assay: Antifungal activity against Trichoderma viride MTCC 1107 at 160 uM/ml after 48 hrs by paper disc diffusion method; assay type: functional; conditions: MTCC 1107, 48 h, read-out: IZ
Trichoderma viride [15] = assay: Antifungal activity against Trichoderma viride MTCC 1107 at 80 uM/ml after 48 hrs by paper disc diffusion method; assay type: functional; conditions: MTCC 1107, 48 h, read-out: IZ
Staphylococcus aureus [16] = assay: Antibacterial activity against Staphylococcus aureus ATCC 11632 at 20 uM/ml after 24 hrs by kirby-bauer method; assay type: functional
Aspergillus flavus [17] = assay: Antifungal activity against Aspergillus flavus MTCC 1021 at 40 uM/ml after 48 hrs by paper disc diffusion method; assay type: functional; conditions: MTCC 1021, 48 h, read-out: IZ
Staphylococcus aureus [18] = assay: Antibacterial activity against Staphylococcus aureus ATCC 11632 at 160 uM/ml after 24 hrs by kirby-bauer method; assay type: functional; conditions: ATCC 11632, 24 h, read-out: IZ
Pseudomonas aeruginosa [19] = assay: Antibacterial activity against Pseudomonas aeruginosa ATCC 15499 at 80 uM/ml after 24 hrs by kirby-bauer method; assay type: functional; conditions: ATCC 15499, 24 h, read-out: IZ
Aspergillus niger [20] = assay: Antifungal activity against Aspergillus niger MTCC 1108 at 80 uM/ml after 48 hrs by paper disc diffusion method; assay type: functional; conditions: MTCC 1108, 48 h, read-out: IZ
Escherichia coli [21] = assay: Antibacterial activity against Escherichia coli ATCC 35218 at 160 uM/ml after 24 hrs by kirby-bauer method; assay type: functional; conditions: ATCC 35218, 24 h, read-out: IZ
[22] = system: Burkholderia pseudomallei; assay: Antibacterial activity against Burkholderia pseudomallei NTCC 10274 at 160 uM/ml after 24 hrs by kirby-bauer method; assay type: functional; conditions: NTCC 10274, 24 h, read-out: IZ
Curvularia lunata [23] = assay: Antifungal activity against Curvularia lunata MTCC 581 at 20 uM/ml after 48 hrs by paper disc diffusion method; assay type: functional; conditions: MTCC 581, 48 h, read-out: IZ
Aspergillus flavus [24] = assay: Antifungal activity against Aspergillus flavus MTCC 1021 at 20 uM/ml after 48 hrs by paper disc diffusion method; assay type: functional; conditions: MTCC 1021, 48 h, read-out: IZ
Escherichia coli [25] = assay: Antibacterial activity against Escherichia coli ATCC 35218 at 40 uM/ml after 24 hrs by kirby-bauer method; assay type: functional; conditions: ATCC 35218, 24 h, read-out: IZ
Trichoderma viride [26] = assay: Antifungal activity against Trichoderma viride MTCC 1107 at 20 uM/ml after 48 hrs by paper disc diffusion method; assay type: functional; conditions: MTCC 1107, 48 h, read-out: IZ
Staphylococcus aureus [27] = assay: Antibacterial activity against Staphylococcus aureus ATCC 11632 at 80 uM/ml after 24 hrs by kirby-bauer method; assay type: functional; conditions: ATCC 11632, 24 h, read-out: IZ
[28] = system: Burkholderia pseudomallei; assay: Antibacterial activity against Burkholderia pseudomallei NTCC 10274 at 80 uM/ml after 24 hrs by kirby-bauer method; assay type: functional; conditions: NTCC 10274, 24 h, read-out: IZ
Aspergillus niger [29] = assay: Antifungal activity against Aspergillus niger MTCC 1108 at 20 uM/ml after 48 hrs by paper disc diffusion method; assay type: functional
Salmonella typhimurium [30] = assay: Antibacterial activity against Salmonella typhimurium ATCC 23564 at 160 uM/ml after 24 hrs by kirby-bauer method; assay type: functional
Trichoderma viride [31] = assay: Antifungal activity against Trichoderma viride MTCC 1107 at 40 uM/ml after 48 hrs by paper disc diffusion method; assay type: functional; conditions: MTCC 1107, 48 h, read-out: IZ
Escherichia coli [32] = assay: Antibacterial activity against Escherichia coli ATCC 35218 at 80 uM/ml after 24 hrs by kirby-bauer method; assay type: functional; conditions: ATCC 35218, 24 h, read-out: IZ
Staphylococcus aureus [33] = assay: Antibacterial activity against Staphylococcus aureus ATCC 11632 at 40 uM/ml after 24 hrs by kirby-bauer method; assay type: functional
Salmonella typhimurium [34] = assay: Antibacterial activity against Salmonella typhimurium ATCC 23564 at 80 uM/ml after 24 hrs by kirby-bauer method; assay type: functional, Salmonella enterica subsp. enterica serovar Typhimurium; conditions: Salmonella enterica, ATCC 23564, 24 h; read-out: IZ
Salmonella typhimurium [35] = assay: Antibacterial activity against Salmonella typhimurium ATCC 23564 at 40 uM/ml after 24 hrs by kirby-bauer method; assay type: functional, Salmonella enterica subsp. enterica serovar Typhimurium; conditions: Salmonella enterica, ATCC 23564, 24 h; read-out: IZ
Salmonella typhimurium [36] = assay: Antibacterial activity against Salmonella typhimurium ATCC 23564 at 20 uM/ml after 24 hrs by kirby-bauer method; assay type: functional, Salmonella enterica subsp. enterica serovar Typhimurium; conditions: Salmonella enterica, ATCC 23564, 24 h; read-out: IZ

COc1cc(/C=C/C(=O)C2=C(/C=C/c3ccc(O)c(OC)c3)NC(=S)NC2c2ccc(O)cc2)ccc1O (stereo unspecified)
zone of inhibition at 160 µM (Pseudomonas aeruginosa [1]): 18 mm
IC50 (QG-56): 50 uM/ml
zone of inhibition at 80 µM (Curvularia lunata [2]): 22 mm
zone of inhibition at 80 µM (Aspergillus flavus [3]): 13 mm
zone of inhibition at 160 µM (Aspergillus flavus [4]): 15 mm
zone of inhibition at 40 µM (Curvularia lunata [5]): 21 mm
zone of inhibition at 40 µM (Pseudomonas aeruginosa [6]): 12 mm
zone of inhibition at 20 µM (Pseudomonas aeruginosa [7]): 9 mm
zone of inhibition at 20 µM (Escherichia coli [8]): 13 mm
zone of inhibition at 20 µM [9]: 14 mm
zone of inhibition at 40 µM [10]: 16 mm
IC50 (HepG2): 100 uM/ml
zone of inhibition at 160 µM (Aspergillus niger [11]): 14 mm
zone of inhibition at 40 µM (Aspergillus niger [12]): 9 mm
zone of inhibition at 160 µM (Curvularia lunata [13]): 24 mm
zone of inhibition at 160 µM (Trichoderma viride [14]): 20 mm
zone of inhibition at 80 µM (Trichoderma viride [15]): 17 mm
inhibition zone (IZ) (Staphylococcus aureus [16]): inactive
zone of inhibition at 40 µM (Aspergillus flavus [17]): 11 mm
zone of inhibition at 160 µM (Staphylococcus aureus [18]): 12 mm
zone of inhibition at 80 µM (Pseudomonas aeruginosa [19]): 14 mm
zone of inhibition at 80 µM (Aspergillus niger [20]): 11 mm
zone of inhibition at 160 µM (Escherichia coli [21]): 22 mm
zone of inhibition at 160 µM [22]: 19 mm
zone of inhibition at 20 µM (Curvularia lunata [23]): 20 mm
zone of inhibition at 20 µM (Aspergillus flavus [24]): 9 mm
zone of inhibition at 40 µM (Escherichia coli [25]): 17 mm
zone of inhibition at 20 µM (Trichoderma viride [26]): 11 mm
zone of inhibition at 80 µM (Staphylococcus aureus [27]): 10 mm
zone of inhibition at 80 µM [28]: 17 mm
inhibition zone (IZ) (Aspergillus niger [29]): inactive
inhibition zone (IZ) (Salmonella typhimurium [30]; Salmonella enterica subsp. enterica serovar Typhimurium): inactive
zone of inhibition (Trichoderma viride [31]): 14 mm
zone of inhibition at 80 µM (Escherichia coli [32]): 18 mm
IC50 (HCT-116): 50 uM/ml
inhibition zone (IZ) (Staphylococcus aureus [33]): inactive

CC1(C)S[C@@H]2[C@H](NC(=O)[C@H](N)c3ccccc3)C(=O)N2[C@H]1C(=O)O [AMPICILLIN]
zone of inhibition at 160 µM (Pseudomonas aeruginosa [1]): 39 mm
zone of inhibition at 80 µM (Salmonella typhimurium [34]): 45 mm
zone of inhibition at 40 µM (Salmonella typhimurium [35]): 44 mm
zone of inhibition at 40 µM (Pseudomonas aeruginosa [6]): 34 mm
zone of inhibition at 20 µM (Pseudomonas aeruginosa [7]): 31 mm
zone of inhibition at 20 µM (Escherichia coli [8]): 30 mm
zone of inhibition at 20 µM [9]: 38 mm
zone of inhibition at 40 µM [10]: 39 mm
zone of inhibition at 20 µM (Staphylococcus aureus [16]; ATCC 11632, 24 h, read-out: IZ): 28 mm
zone of inhibition at 160 µM (Staphylococcus aureus [18]): 37 mm
zone of inhibition at 80 µM (Pseudomonas aeruginosa [19]): 36 mm
zone of inhibition at 160 µM (Escherichia coli [21]): 34 mm
zone of inhibition at 20 µM (Salmonella typhimurium [36]): 37 mm
zone of inhibition at 160 µM [22]: 46 mm
zone of inhibition at 40 µM (Escherichia coli [25]): 30 mm
zone of inhibition at 80 µM (Staphylococcus aureus [27]): 30 mm
zone of inhibition at 80 µM [28]: 41 mm
zone of inhibition at 160 µM (Salmonella typhimurium [30]; Salmonella enterica, ATCC 23564, 24 h, read-out: IZ): 51 mm
zone of inhibition at 80 µM (Escherichia coli [32]): 32 mm
zone of inhibition at 40 µM (Staphylococcus aureus [33]; ATCC 11632, 24 h, read-out: IZ): 29 mm
